Data reported in patent US20170281587A1, “ERYTHROCYTE FUNCTION IMPROVING AGENT” (Glico Nutrition Co., Ltd., priority 2014, published 2017).
Several values for one entry are separate records, joined by “and”; a condition that tells them apart may be missing. Identical values can stand only once.

Tests used:
red blood cells [1] = conditions: in vivo, po
Experimental: In this test, paprika carotenoids rich in carotenoids having 3,6-epoxy end groups or 5-membered ring end groups were orally administered to an adult, and cucurbitaxanthin A, capsanthin, capsorubin, and capsanthin 3,6-epoxide were evaluated for their ability to migrate into red blood cells. A specific testing method was as described below.
Initially, 15 g of a paprika pigment emulsified preparation (PapriX; total amount of carotenoids: 10 mg/g) from Glico Nutrition Co., Ltd., 30 g of dextrin, 70 g of sugar, and 3 g of citric acid were dissolved in 1 L of water to prepare a test beverage containing the paprika carotenoids. The paprika pigment emulsified preparation contained 0.053 mass % of cucurbitaxanthin A, 0.40 mass % of capsanthin, 0.021 mass % of capsorubin, and 0.034 mass % of capsanthin 3,6-epoxide, and the test beverage contained 0.00079 mass % of cucurbitaxanthin A, 0.0060 mass % of capsanthin, 0.00031 mass % of capsorubin, and 0.00051 mass % of capsanthin 3,6-epoxide.
Before the beginning of the ingestion and after 4 weeks from the ingestion, blood was collected to obtain blood samples. Red blood cells were separated from the obtained blood samples, and the carotenoids (capsanthin 3,6-epoxide, cucurbitaxanthin A, capsanthin, and capsorubin) present in red blood cells were quantified by HPLC.

red blood cells [2] = conditions: cited from earlier work
[3] = 30 healthy males and females, oral administration for 12 weeks

SMILES | ability to migrate into red blood cells (migration ratio into red blood cells) (red blood cells [1]) | astaxanthin in the red blood cells (red blood cells [2]; [3]) | lipid peroxides in the red blood cells (red blood cells [2]; [3]) | migration ratio into red blood cells (red blood cells [2]; day 84 after the ingestion, calculated from literature disclosure)
CC1=C(/C=C/C(C)=C/C=C/C(C)=C/C=C/C=C(C)/C=C/C=C(C)/C=C/[C@@]23O[C@@H](CC2(C)C)C[C@@]3(C)O)C(C)(C)C[C@H](O)C1 [cucurbitaxanthin A, (3S,3′R,5R,6R)-3,6-epoxy-5,6-dihydro-β,β-carotene-3′,5-diol] | markedly high ability to migrate into red blood cells |  |  | 
CC1=C(/C=C/C(C)=C/C=C/C(C)=C/C=C/C=C(C)/C=C/C=C(C)/C=C/C(=O)[C@]2(C)C[C@@H](O)CC2(C)C)C(C)(C)C[C@H](O)C1 [capsanthin] | little migration into red blood cells |  |  | 
CC(/C=C/C=C(C)/C=C/C(=O)[C@]1(C)C[C@@H](O)CC1(C)C)=C\C=C\C=C(C)\C=C\C=C(C)\C=C\[C@@]12O[C@@H](CC1(C)C)C[C@@]2(C)O [capsanthin 3,6-epoxide] | little migration into red blood cells |  |  | 
CC(/C=C/C=C(C)/C=C/C(=O)[C@]1(C)C[C@@H](O)CC1(C)C)=C\C=C\C=C(C)\C=C\C=C(C)\C=C\C(=O)[C@]1(C)C[C@@H](O)CC1(C)C [capsorubin] | little migration into red blood cells |  |  | 
CC1=C(/C=C/C(C)=C/C=C/C(C)=C/C=C/C=C(C)/C=C/C=C(C)/C=C/C2=C(C)C(=O)[C@@H](O)CC2(C)C)C(C)(C)C[C@H](O)C1=O [astaxanthin] |  | an increase in astaxanthin | a decrease in lipid peroxides | 0.0089% and 0.0057%
